The source of these data is publication PMC5620575 (Pharmaceutics, 2017).

The nature of data set [1]: tissue to plasma distribution. The class given is in vivo. To be noted: New Zealand White, rabbit, in vivo, 2 x 10 mg/kg IV, 2 h after second dose, n = 3, read-out: Tissue to Plasma Concentration Ratio, Kidney. Here is the method:
Three groups of White New Zealand rabbits (n = 3, each) weighing 3.0–3.5 kg were used. Each group received 10 mg/kg of one compounds administered intravenously over a period of 3–5 min, followed one hour later by a second IV dose of 10 mg/kg. Two h later, the rabbits were euthanized with an IV dose of pentobarbital. Plasma and tissue samples, including kidney, liver, lungs, spleen, heart, muscles, and vetrus fluid were collected immediately, and stored at −80 °C until analysis.
Plasma ultra-filtrate samples were analyzed using the same procedures for the plasma. Tissue homogenates were prepared by adding 1 gm of the tissues samples to 4 g of phosphate buffer, pH 7.4 (1:4, w/w), then homogenization using Tissue-Tearor, Bio-Spec Products Inc. (Bartlesville, OK, USA). Aliquots of 200 μL of tissue homogenate samples were analyzed using the procedures for the plasma and the concentrations were determined using plasma calibrators as described and validated previously for Lzd and PH027 [18].
The tissue to plasma concentration ratios for the three compounds were calculated from the ratio of the tissue homogenate concentrations corrected for the dilution during the homoginization process and the plasma concentrations. Generally, the three compounds have very good distribution to all tissues. The tissue to plasma distribution ratios for the novel compounds were more than one in kidney, lung, liver, heart, muscles and spleen, and the ratios were more than those for Lzd in all investigated tissues. Table 3, summerizes the tissue to plasma distribution ratios for the three compounds in different tissues.

On the set-up of data set [2]: method as in ref 25 = [25]; 25. ZYVOXAM ® Product Monograph Pfizer Canada Inc. Kirkland, QC, Canada 2015. To be noted: humans; cited from earlier work.
Details of data set [3]: method as in unpublished data from our laboratory. Particulars: rabbit urine after IV administration; ref unpublished data from our laboratory; cited from earlier work.
For data set [4] the following is noted: humans; cited from earlier work.
The test system of the next data set is S. aureus Giorgio. Also noted: method as in ref unpublished data from Jin-Hwan Kwak at Handong Global University. Particulars: oral suspension 1 and 4 h after infection, survival recorded for 72 h; ref unpublished data from Jin-Hwan Kwak at Handong Global University; cited from earlier work.
Another data set deals with Escherichia coli. Also on record: method as in PMID 12467705, PMID 15911326, PMID 17140706, PMID 19376613, PMID 23811087. To be noted: cited from earlier work.
A further data set has as its system Streptococcus pneumoniae. Also noted: method as in PMID 12467705, PMID 15911326, PMID 17140706, PMID 19376613, PMID 23811087. To be noted: cited from earlier work.
Data set [5] relates to Staphylococcus aureus and Enterococci spp. Also noted: method as in PMID 12467705, PMID 15911326, PMID 17140706, PMID 19376613, PMID 23811087. To be noted: clinical isolates; cited from earlier work.
A further data set concerns Moraxella catarrhalis. Also noted: method as in PMID 12467705, PMID 15911326, PMID 17140706, PMID 19376613, PMID 23811087. Particulars: cited from earlier work.
The nature of data set [6]: pharmacokinetics after single oral administration as microemulsion. It counts as in vivo. To be noted: New Zealand White, plasma, rabbit, 20 mg/kg, n = 3. As for the experimental part:
Three groups of rabbits (n = 3, each) received 20 mg/kg oral dose of each compound in the form of microemulsion through a pediatric feeding tube. After administration, serial blood samples were obtained through the IV catheter, over a period of 10 h. Plasma was obtained from blood by centrifugation, and samples were kept at −80 °C until analysis.
(§1) The pharmacokinetic parameters for each of the three compounds including half-life (t1/2), volume of distribution (Vd), elimination rate constant (k), area under the plasma concentration-time curve (AUC), total body clearance (CLT), renal clearance (CLR), and oral bioavailability (F) were determined using the general pharmacokinetic parameter calculation procedures using PKPD tools for Microsoft Excel. The obtained pharmacokinetic parameters for each compound were compared using Statistical Package of Social Sciences (SPSS) to determine the difference in the pharmacokinetic behavior for the three compounds.

Data set [7] in a line: pharmacokinetics after single oral administration as suspension. It counts as in vivo. To be noted: New Zealand White, plasma, rabbit, 20 mg/kg, n = 4. Here is the method:
The pediatric feeding tube was pushed until it reached the stomach.
Three groups of rabbits (n = 4, each) received 20 mg/kg oral dose of each compound. […] Accurately weighted amounts of each compound were dissolved/suspended in 20 mL of warm normal saline using an ultrasound water bath. […] The solutions/suspensions of the three compounds were administered orally to the rabbits using a pediatric feeding tubes. After oral administration of each compound, serial blood samples were obtained through the IV catheter, over a period of 10 h after administration. Plasma was obtained from blood by centrifugation, and samples were kept at −80 °C until analysis.
as §1

Data set [8] in a line: pharmacokinetics after single IV administration. The class given is in vivo. Particulars: rabbit, 5 mg/kg.
From the text: IV administration of the compounds under investigation, and collection of blood samples were through a catheter inserted in the marginal ear vein of the rabbit (I-Cath, CharterMed Inc., Winston-Salem, NC, USA). After IV drug administration, blood was withdrawn to fill the cannula and then reinjected three times before obtaining any blood samples to prevent contamination. Furthermore, the cannula was flushed with heparinized saline to prevent blockage of the cannula and prevent sample to sample contamination.
Urine samples were collected utilizing Foly Catheter (size French 8). The catheter was inserted into the rabbit bladder using a lubricant. When urine is collected over a specific time interval, the bladder was irrigated with 3 × 15 mL normal saline at 3 min, 6 min, and 10 min before the end of the urine collection interval [15, 16]. Irrigation of the bladder is necessary to obtain the majority of the drug eliminated in urine during the collection interval.
Three groups of rabbits (n = 4, each) received 5 mg/kg dose of each compound via the IV catheter. This dose was selected based on the results of a preliminary experiment to achieve measurable plasma concentrations for 8 h using our analytical methods, to ensure good characterization of the plasma concentration-time profile. Accurately weighed Lzd and PH027 powder were dissolved first in 600 μL of ethanol using an ultrasound water bath. The resulting solution was then diluted with normal saline to produce the solutions used for IV administration, which consist of the dose of the compound dissolved in 3 mL of 20% ethanol in normal saline. PH051 required the use of slightly larger volume of ethanol to achieve complete dissolution. So, 900 μL of ethanol were used, and the resulting solution used for IV administration consisted of PH051 dose dissolved in 3 mL of 30% ethanol in normal saline. The difference in the volume of ethanol administered, 300 μL, which was necessary to ensure complete dissolution of PH051, should not have a significant effect on the pharmacokinetic behavior of PH051. The solutions were administered slowly over a period of […] administration, serial blood and urine samples were obtained over a period of 8 h. Plasma was obtained from blood by centrifugation, and samples were kept at −80 °C until analysis. The volumes of urine samples were determined and recorded, and aliquots were kept at −80 °C until analysis.
as §1

For data set [9] the following is noted: weak base; reported, no reference given; cited from earlier work.
A further data set has as its system Heamophilus influenzae. Also noted: method as in PMID 12467705, PMID 15911326, PMID 17140706, PMID 19376613, PMID 23811087. To be noted: unit printed only for the neighbouring MICs of the sentence; cited from earlier work.
The mark [10] stands for this setting: White New Zealand, plasma, n = 4.

In brackets after ≈: the same amount, converted by molar mass.

The AUC is concentration integrated over time. Low values mean low exposure, high ones high exposure. In general, Cmax refers to the peak of the concentration-time curve. For orientation: Tmax means the time at which the peak concentration occurs. The term half-life denotes the time in which the quantity being followed falls by half. High values mean slow decline, low ones rapid decline. By pKa is commonly meant the pH at which an ionisable group is half protonated. Regarding `CC(=O)NC[C@H]1CN(c2ccc(N3CCOCC3)c(F)c2)C(=O)O1` [Linezolid, reference compound], the Kp at 2 h in data set [1] was 2.05 ± 0.067. The “dose excretion in urine” value in data set [2] was 30%. Further, the main metabolic route entry in data set [3] is recorded as “metabolized mainly through oxidation”. For the same compound, in [4], the plasma protein binding was 30%. Besides, the “in vivo activity against systemic mice infection” value in the data set with S. aureus Giorgio was “better than the in vivo activity of the novel triazolyl-oxazolidinone derivatives”. The MIC with Escherichia coli was above 64 µg/mL; in the data set with Streptococcus pneumoniae it was 0.5 µg/mL (≈ 1.48 µM); in data set [5] it was 0.5 to 1.0 µg/mL; with Moraxella catarrhalis it was 8.0 µg/mL (≈ 23.7 µM); in the data set on Heamophilus influenzae, 8 µg/mL (≈ 23.7 µM). Also, the values for the area under the curve (AUC) in [6], in data set [7] and in data set [8] (setting [10]) were 8350 ± 3340 ng·h/mL, 6250 ± 3620 ng·h/mL and 4040 ± 1280 ng·h/mL, respectively. The figures for the Cmax in data set [6] and in data set [7] were 3410 ± 1800 ng/mL and 3910 ± 1010 ng/mL, respectively. Besides, the time to peak (Tmax) in [6] is 45 min; in [7], 60 min. In addition, the half-life in data set [8] (setting [10]) worked out at 52.4 ± 6.3 min. Besides, the k el in data set [8] (White New Zealand, plasma, n = 4, read-out: Elimination rate constant (converted)) is 0.00022 s⁻¹. In addition, the CL renal in data set [8] (White New Zealand, urine and plasma, from renal excretion rate and plasma drug concentration, read-out: Renal clearance (converted)) is 1.38 mL/min/kg. The same compound came in with a CLT in data set [8] (n = 4) of 20.7 ± 7.17 mL/min/kg. In addition, the “Fraction excreted unchanged in urine” value in data set [8] (ratio of renal clearance to total body clearance) was 5.70%. Further, the pKa in data set [9] is 1.4.
